Experimental data from patent US20100120703A1, “COMPOSITIONS AND METHODS FOR TREATING CANCER” (priority 2007, published 2010).

Experiments:
[1] = tested on: Sprague Dawley (SD) rats; experiment: Histological analysis and GST-p immunostaining of liver, progression stage; assay type: in vivo, rat
Description: The liver samples were fixed with 10% formaldehyde and put in cassettes for dehydration and fixed with wax. Subsequently, liver samples were embedded in the solidified wax and sliced to 5 μm thickness with a microtome machine. Sliced samples were mounted onto Superfrost microscope slides for further studies.
Slides with liver sections were placed on a slide holder, dewaxed and rehydrated with xylene (3 times, each time 5 minutes), 100% ethanol (3 times, each time 3 minutes), 95% ethanol (3 minutes), 80% ethanol (3 minutes) and distilled water (5 minutes) in order. Slides were then immersed into hematoxylin for about 3 minutes, and the color was allowed to develop for several minutes in water, followed by brief destaining with acid ethanol and water. Slides were immersed into eosin for about 30 seconds to stain the cytoplasm red, followed by washing in tap water for several minutes. Slide-checking was necessary to assure the best staining effect. Slides were then dehydrated with 95% ethanol (3 minutes), 100% ethanol (3 times, each time 5 minutes), and xylene (3 times, each time 5 minutes), in order. Finally, the slides were mounted with coverslips and allowed to dry. […]
The images were checked and captured by an Axiophot-2 Universal microscope (Zeiss) connected with computer for documentation. The image was recorded by Spot 32 image capture software (Diagnostic Instruments). […]

[2] = tested on: Sprague Dawley (SD) rats; experiment: DEN/CCl4-induced hepatoma in rats, promotion stage: liver observation and weight; assay type: in vivo, rat; conditions: 15 mg/kg oral daily for 28 weeks
Description: Sprague Dawley (SD) rats were used as the animal model in the in vivo experiments. Male SD rats (80-90 g body weight) were obtained from Laboratory Animal Services Center of The Chinese University of Hong Kong. The rats were housed in the rodent animal room with a 12 hour light-dark cycle and constant temperature of 25° C. Four rats were housed in each case. Food and water were given ad libitum. All the animals were observed and weighed daily.
The experiments were to induce hepatomas in rats. SIN was administered to the rats of treatment group at different stages. Chemical carcinogens were employed in the design of experiment to be able to induce hepatoma within a short time (Ha W. S. et al., 2001). Diethylnitrosamine (DEN) has been frequently used by other scientists to induce hepatoma. DEN administration in combined with CCl4 method was employed in the experiment to induce hepatoma in rats according to the established protocol (Kovalszky, I. et al., 1992).
Experiments of the promotion stage were to study the effect of SIN at the promotion stage of cancer development. Fifteen rats were randomly divided into 3 groups, a negative control group (5 rats), a positive control group (5 rats) and an SIN-treatment group (5 rats). […]
During the experiment, the body weight of the rat was monitored daily. […]

C=CC/C(=N/OS(=O)(=O)[O-])S[C@@H]1OC(CO)[C@@H](O)C(O)C1O.[K+] (stereo partly shown) [SIN, sinigrin]
hepatocyte structure in liver sections (H&E) ([1]; 15 mg/kg oral daily): the basic structure was restored without abnormal appearance | GST-p positive area / whole section area ([1]; positive control about 30%): less than 10% | percentage of liver weight and liver weight index vs negative group [2]: only slightly higher | visible tumors on liver (direct observation) [2]: no visible tumor
